# In patent US8518923B2, “Treatment or prevention of hypertensive disorders of pregnancy or fetal growth retardation” (Pantarhei Bioscience B.V., priority 2007, dated 2013):
# Assays:
# Myometrial arteries = assay: Ex-vivo relaxation response in myometrial arteries on pressure myograph; parameters: species or system human; details: for relaxation in myometrial arteries: arteries from normal pregnant women, pressure myograph, concentration response (FIG. 1)
# Source text: (§1) To evaluate acute dilatory responses to estetrol in human vasculature ex-vivo, the following study has been conducted. Myometrial arteries and subcutaneous arteries (diameter: 220 μm; length: 2-3 mm) were dissected from normal pregnant women undergoing planned caesarian section. Myometrial arteries are present in the uterus and are branches from the arteria uterina. Cigarette smokers and women with hypertension, diabetes mellitus, clinical manifestations of arteriosclerosis (CHD, peripheral artery disease, cerebrovascular disease), venous thromboembolic disease, liver disorders, unexplained vaginal bleeding, and personal or family history of breast cancer were excluded. None had received HRT, other steroid hormones, or any medication known to affect lipoprotein metabolism or blood pressure. The dissected arteries were mounted on a pressure myograph (LSI, USA). The organ bath was perfused (7 ml/min) with PSS (mM: NaCl 119, KCl 4.7, CaCl2 2.5, MgSO4 1.17, NaHCO3 25, KH2PO4 1.18, EDTA 0.026 and glucose 5.5; pH 7.4, 37° C., gassed with 5% CO2 in O2). […] FIG. 1 depicts the response curve of estetrol and PPT in the myometrial arteries. The number of subjects is mentioned in parenthesis.
# subcutaneous arteries = assay: Ex-vivo relaxation response in subcutaneous arteries on pressure myograph; parameters: species or system human; details: arteries from normal pregnant women, concentration response (FIG. 2)
# Source text: as §1, with “FIG. 2” for “FIG. 1”, “the subcutaneous” for “the myometrial”, “arteries. Again, the” for “arteries. The”
SMILES,relaxation in myometrial arteries (Myometrial arteries),selective effect: relaxation in myometrial arteries compared to subcutaneous arteries (Myometrial arteries; comparison of FIGS. 1 and 2),relaxation in subcutaneous arteries (subcutaneous arteries)
"C[C@]12CC[C@@H]3c4ccc(O)cc4CC[C@H]3[C@@H]1[C@@H](O)[C@@H](O)[C@@H]2O [estetrol, 1,3,5 (10)-estratrien-3,15α,16α,17β-tetrol]",capable of inducing relaxation,more pronounced in the myometrial arteries compared to the subcutaneous arteries,capable of inducing relaxation
"CCCc1c(-c2ccc(O)cc2)nn(-c2ccc(O)cc2)c1-c1ccc(O)cc1 [PPT, [1H]-pyrazole-1,3,5-tri-trisphenol, reference compound]",capable of inducing relaxation,–,capable of inducing relaxation
